PubChem BioAssay (NCI)
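All cell lines were grown in 96-well plates and treated with compound for 48 hours. Definition used: TGI = concentration required for complete inhibition of growth.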

What was measured:
Experiment in all cases: NCI-60 cell line screen, 48 h
786-0 renal = test system: 786-0 renal
A549 NSCLC = test system: A549 NSCLC
ACHN renal = test system: ACHN renal
CAKI-1 renal = test system: CAKI-1 renal
CCRF-CEM leukemia = test system: CCRF-CEM leukemia
COLO 205 colon = test system: COLO 205 colon
DLD-1 colon = test system: DLD-1 colon
DMS 114 small cell lung = test system: DMS 114 small cell lung
DMS 273 small cell lung = test system: DMS 273 small cell lung
EKVX NSCLC = test system: EKVX NSCLC
HCC-2998 colon = test system: HCC-2998 colon
HCT-15 colon = test system: HCT-15 colon
HL-60(TB) leukemia = test system: HL-60(TB) leukemia
HOP-18 NSCLC = test system: HOP-18 NSCLC
HOP-62 NSCLC = test system: HOP-62 NSCLC
HOP-92 NSCLC = test system: HOP-92 NSCLC
HT29 colon = test system: HT29 colon
IGROV1 ovarian = test system: IGROV1 ovarian
K-562 leukemia = test system: K-562 leukemia
KM20L2 colon = test system: KM20L2 colon
LOX IMVI melanoma = test system: LOX IMVI melanoma
LXFL 529 NSCLC = test system: LXFL 529 NSCLC
M14 melanoma = test system: M14 melanoma
M19-MEL melanoma = test system: M19-MEL melanoma
MALME-3M melanoma = test system: MALME-3M melanoma
MOLT-4 leukemia = test system: MOLT-4 leukemia
NCI-H23 lung = test system: NCI-H23 lung
NCI-H460 lung = test system: NCI-H460 lung
OVCAR-3 ovarian = test system: OVCAR-3 ovarian
OVCAR-4 ovarian = test system: OVCAR-4 ovarian
OVCAR-8 ovarian = test system: OVCAR-8 ovarian
RPMI-8226 leukemia = test system: RPMI-8226 leukemia
RXF 393 renal = test system: RXF 393 renal
SF-268 CNS = test system: SF-268 CNS
SF-295 CNS = test system: SF-295 CNS
SK-MEL-28 melanoma = test system: SK-MEL-28 melanoma
SK-OV-3 ovarian = test system: SK-OV-3 ovarian
SN12C renal = test system: SN12C renal
SNB-19 CNS = test system: SNB-19 CNS
SNB-75 CNS = test system: SNB-75 CNS
SNB-78 CNS = test system: SNB-78 CNS
SW-620 colon = test system: SW-620 colon
TK-10 renal = test system: TK-10 renal
U251 CNS = test system: U251 CNS
UACC-62 melanoma = test system: UACC-62 melanoma
UO-31 renal = test system: UO-31 renal
XF 498 CNS = test system: XF 498 CNS
HCT-116 colon = test system: HCT-116 colon
KM12 colon = test system: KM12 colon
NCI-H226 lung = test system: NCI-H226 lung
NCI-H522 lung = test system: NCI-H522 lung
OVCAR-5 ovarian = test system: OVCAR-5 ovarian
SF-539 CNS = test system: SF-539 CNS
SK-MEL-2 melanoma = test system: SK-MEL-2 melanoma
SK-MEL-5 melanoma = test system: SK-MEL-5 melanoma
SR leukemia = test system: SR leukemia
UACC-257 melanoma = test system: UACC-257 melanoma
A498 renal = test system: A498 renal

## CCOC(=O)C1(Cc2ccc3ccccc3c2)CCCCC(=O)N1 (stereo not drawn)
786-0 renal
  TGI: > 100 µM
A549 NSCLC
  TGI: > 100 µM
ACHN renal
  TGI: > 100 µM
CAKI-1 renal
  TGI: > 100 µM
CCRF-CEM leukemia
  TGI: > 100 µM
COLO 205 colon
  TGI: > 100 µM
DLD-1 colon
  TGI: > 100 µM
DMS 114 small cell lung
  TGI: 72.9 µM
DMS 273 small cell lung
  TGI: 36.9 µM
EKVX NSCLC
  TGI: > 100 µM
HCC-2998 colon
  TGI: 66.6 µM
HCT-15 colon
  TGI: > 100 µM
HL-60(TB) leukemia
  TGI: 30.3 µM
HOP-18 NSCLC
  TGI: > 100 µM
HOP-62 NSCLC
  TGI: > 100 µM
HOP-92 NSCLC
  TGI: 59.2 µM
HT29 colon
  TGI: > 100 µM
IGROV1 ovarian
  TGI: > 100 µM
K-562 leukemia
  TGI: > 100 µM
KM20L2 colon
  TGI: > 100 µM
LOX IMVI melanoma
  TGI: > 100 µM
LXFL 529 NSCLC
  TGI: > 100 µM
M14 melanoma
  TGI: > 100 µM
M19-MEL melanoma
  TGI: > 100 µM
MALME-3M melanoma
  TGI: 86.5 µM
MOLT-4 leukemia
  TGI: > 100 µM
NCI-H23 lung
  TGI: > 100 µM
NCI-H460 lung
  TGI: > 100 µM
OVCAR-3 ovarian
  TGI: 92.5 µM
OVCAR-4 ovarian
  TGI: > 100 µM
OVCAR-8 ovarian
  TGI: > 100 µM
RPMI-8226 leukemia
  TGI: 58.2 µM
RXF 393 renal
  TGI: > 100 µM
SF-268 CNS
  TGI: > 100 µM
SF-295 CNS
  TGI: 35.2 µM
SK-MEL-28 melanoma
  TGI: > 100 µM
SK-OV-3 ovarian
  TGI: > 100 µM
SN12C renal
  TGI: > 100 µM
SNB-19 CNS
  TGI: > 100 µM
SNB-75 CNS
  TGI: 9.22 µM
SNB-78 CNS
  TGI: > 100 µM
SW-620 colon
  TGI: > 100 µM
TK-10 renal
  TGI: > 100 µM
U251 CNS
  TGI: > 100 µM
UACC-62 melanoma
  TGI: > 100 µM
UO-31 renal
  TGI: 82.2 µM
XF 498 CNS
  TGI: > 100 µM

## COc1ccccc1NC(=O)/C(=C/c1ccccc1)C(C)=O
786-0 renal
  TGI: > 100 µM
A549 NSCLC
  TGI: > 100 µM
ACHN renal
  TGI: > 100 µM
CAKI-1 renal
  TGI: > 100 µM
CCRF-CEM leukemia
  TGI: > 100 µM
DLD-1 colon
  TGI: > 100 µM
DMS 114 small cell lung
  TGI: > 100 µM
EKVX NSCLC
  TGI: > 100 µM
HCC-2998 colon
  TGI: > 100 µM
HCT-116 colon
  TGI: > 100 µM
HCT-15 colon
  TGI: > 100 µM
HL-60(TB) leukemia
  TGI: 57.3 µM
HOP-18 NSCLC
  TGI: > 100 µM
HOP-62 NSCLC
  TGI: > 100 µM
HOP-92 NSCLC
  TGI: > 100 µM
HT29 colon
  TGI: > 100 µM
IGROV1 ovarian
  TGI: > 100 µM
K-562 leukemia
  TGI: > 100 µM
KM12 colon
  TGI: > 100 µM
LOX IMVI melanoma
  TGI: > 100 µM
LXFL 529 NSCLC
  TGI: > 100 µM
M14 melanoma
  TGI: 67.6 µM
M19-MEL melanoma
  TGI: > 100 µM
MALME-3M melanoma
  TGI: > 100 µM
MOLT-4 leukemia
  TGI: > 100 µM
NCI-H226 lung
  TGI: > 100 µM
NCI-H23 lung
  TGI: 65.7 µM
NCI-H460 lung
  TGI: > 100 µM
NCI-H522 lung
  TGI: 58.2 µM
OVCAR-3 ovarian
  TGI: > 100 µM
OVCAR-4 ovarian
  TGI: > 100 µM
OVCAR-5 ovarian
  TGI: > 100 µM
OVCAR-8 ovarian
  TGI: > 100 µM
RPMI-8226 leukemia
  TGI: > 100 µM
RXF 393 renal
  TGI: 53.8 µM
SF-268 CNS
  TGI: > 100 µM
SF-295 CNS
  TGI: 71 µM
SF-539 CNS
  TGI: 62 µM
SK-MEL-2 melanoma
  TGI: > 100 µM
SK-MEL-28 melanoma
  TGI: > 100 µM
SK-MEL-5 melanoma
  TGI: 62 µM
SK-OV-3 ovarian
  TGI: > 100 µM
SN12C renal
  TGI: > 100 µM
SNB-19 CNS
  TGI: > 100 µM
SNB-78 CNS
  TGI: 44.6 µM
SR leukemia
  TGI: > 100 µM
SW-620 colon
  TGI: > 100 µM
TK-10 renal
  TGI: > 100 µM
U251 CNS
  TGI: 15 µM
UACC-257 melanoma
  TGI: > 100 µM
UACC-62 melanoma
  TGI: > 100 µM
UO-31 renal
  TGI: > 100 µM
XF 498 CNS
  TGI: 89.5 µM

## O=C(O)/C=C\C(=O)Nc1ccc(S(=O)(=O)c2ccc(NC(=O)/C=C\C(=O)O)cc2)cc1
786-0 renal
  TGI: > 100 µM
A549 NSCLC
  TGI: > 100 µM
ACHN renal
  TGI: > 100 µM
CAKI-1 renal
  TGI: > 100 µM
CCRF-CEM leukemia
  TGI: > 100 µM
COLO 205 colon
  TGI: > 100 µM
DLD-1 colon
  TGI: > 100 µM
DMS 114 small cell lung
  TGI: > 100 µM
EKVX NSCLC
  TGI: > 100 µM
HCT-116 colon
  TGI: > 100 µM
HCT-15 colon
  TGI: > 100 µM
HL-60(TB) leukemia
  TGI: > 100 µM
HOP-62 NSCLC
  TGI: > 100 µM
HOP-92 NSCLC
  TGI: > 100 µM
HT29 colon
  TGI: > 100 µM
IGROV1 ovarian
  TGI: > 100 µM
K-562 leukemia
  TGI: > 100 µM
KM12 colon
  TGI: > 100 µM
KM20L2 colon
  TGI: > 100 µM
LOX IMVI melanoma
  TGI: > 100 µM
LXFL 529 NSCLC
  TGI: > 100 µM
M14 melanoma
  TGI: > 100 µM
M19-MEL melanoma
  TGI: > 100 µM
MALME-3M melanoma
  TGI: > 100 µM
MOLT-4 leukemia
  TGI: > 100 µM
NCI-H226 lung
  TGI: > 100 µM
NCI-H23 lung
  TGI: > 100 µM
NCI-H522 lung
  TGI: > 100 µM
OVCAR-3 ovarian
  TGI: > 100 µM
OVCAR-4 ovarian
  TGI: > 100 µM
OVCAR-5 ovarian
  TGI: > 100 µM
OVCAR-8 ovarian
  TGI: > 100 µM
RPMI-8226 leukemia
  TGI: > 100 µM
SF-268 CNS
  TGI: > 100 µM
SF-295 CNS
  TGI: > 100 µM
SF-539 CNS
  TGI: > 100 µM
SK-MEL-2 melanoma
  TGI: > 100 µM
SK-MEL-28 melanoma
  TGI: > 100 µM
SK-MEL-5 melanoma
  TGI: > 100 µM
SK-OV-3 ovarian
  TGI: > 100 µM
SN12C renal
  TGI: > 100 µM
SNB-19 CNS
  TGI: > 100 µM
SNB-75 CNS
  TGI: > 100 µM
SNB-78 CNS
  TGI: > 100 µM
SR leukemia
  TGI: > 100 µM
SW-620 colon
  TGI: > 100 µM
TK-10 renal
  TGI: > 100 µM
U251 CNS
  TGI: > 100 µM
UACC-257 melanoma
  TGI: > 100 µM
UACC-62 melanoma
  TGI: > 100 µM
UO-31 renal
  TGI: > 100 µM
XF 498 CNS
  TGI: > 100 µM

## Cc1c2ccncc2c(C)c2c1[nH]c1ccc(O)c(OCC(F)(F)F)c12
786-0 renal
  TGI: 5.78 µM
A498 renal
  TGI: 37.5 µM
A549 NSCLC
  TGI: 16.5 µM
CAKI-1 renal
  TGI: 19.6 µM
CCRF-CEM leukemia
  TGI: 7.18 µM
COLO 205 colon
  TGI: 22.3 µM
DLD-1 colon
  TGI: 18.2 µM
DMS 114 small cell lung
  TGI: 10.7 µM
DMS 273 small cell lung
  TGI: 4.87 µM
EKVX NSCLC
  TGI: 20.5 µM
HCC-2998 colon
  TGI: 19.3 µM
HCT-116 colon
  TGI: 9.11 µM
HL-60(TB) leukemia
  TGI: 11.6 µM
HOP-62 NSCLC
  TGI: 20.9 µM
HOP-92 NSCLC
  TGI: 16.5 µM
HT29 colon
  TGI: > 7.5 µM
IGROV1 ovarian
  TGI: 18.1 µM
K-562 leukemia
  TGI: 33.9 µM
KM20L2 colon
  TGI: 27.3 µM
LOX IMVI melanoma
  TGI: 3.27 µM
LXFL 529 NSCLC
  TGI: 15.5 µM
M14 melanoma
  TGI: 19.7 µM
MALME-3M melanoma
  TGI: 22.3 µM
MOLT-4 leukemia
  TGI: 6.04 µM
NCI-H226 lung
  TGI: 20.1 µM
NCI-H23 lung
  TGI: 19.4 µM
NCI-H460 lung
  TGI: 10.5 µM
NCI-H522 lung
  TGI: 15.9 µM
OVCAR-3 ovarian
  TGI: 19 µM
OVCAR-4 ovarian
  TGI: 14 µM
OVCAR-5 ovarian
  TGI: 25.8 µM
OVCAR-8 ovarian
  TGI: 26 µM
RPMI-8226 leukemia
  TGI: 5.95 µM
SF-268 CNS
  TGI: 24.1 µM
SF-295 CNS
  TGI: 14.8 µM
SF-539 CNS
  TGI: 16.3 µM
SK-MEL-2 melanoma
  TGI: 22.9 µM
SK-MEL-28 melanoma
  TGI: 22.4 µM
SK-MEL-5 melanoma
  TGI: 7.5 µM
SK-OV-3 ovarian
  TGI: 19.9 µM
SN12C renal
  TGI: 20.8 µM
SNB-19 CNS
  TGI: 9.17 µM
SNB-75 CNS
  TGI: 21.1 µM
SNB-78 CNS
  TGI: 18.2 µM
SW-620 colon
  TGI: 19.2 µM
TK-10 renal
  TGI: 25 µM
U251 CNS
  TGI: 10.7 µM
UACC-257 melanoma
  TGI: 21.4 µM
UACC-62 melanoma
  TGI: 21.6 µM
UO-31 renal
  TGI: 19.9 µM
XF 498 CNS
  TGI: 22.9 µM
